In patent publication US9023865B2, “Compounds that are ERK inhibitors” (Merck Sharp & Dohme Corp., priority 2011, dated 2015):
Structures can show the parent of a compound that is named as a salt.

Biological target: Active Human ERK2 (hERK2) (Homo sapiens (Human), UniProt P28482)
Experiment: Active Human ERK2 (hERK2) Activity Assay (IMAP-FP)
Assay type: biochemical
Settings: phosphorylated active hERK2, 30 μM ATP; average; read-out: ERK 2 Human average IC50
How it was run: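 Reaction contains 0.5 nM activated hERK2, 900 nM unlabeled plus 80 nM labeled peptide and 30 μM ATP, run 60 min. Quenched with IMAP binding beads in buffer with 24 mM NaCl; fluorescence polarization read after 60 min binding equilibration.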

Active Human ERK2 (hERK2), sequence (P28482 whole entry): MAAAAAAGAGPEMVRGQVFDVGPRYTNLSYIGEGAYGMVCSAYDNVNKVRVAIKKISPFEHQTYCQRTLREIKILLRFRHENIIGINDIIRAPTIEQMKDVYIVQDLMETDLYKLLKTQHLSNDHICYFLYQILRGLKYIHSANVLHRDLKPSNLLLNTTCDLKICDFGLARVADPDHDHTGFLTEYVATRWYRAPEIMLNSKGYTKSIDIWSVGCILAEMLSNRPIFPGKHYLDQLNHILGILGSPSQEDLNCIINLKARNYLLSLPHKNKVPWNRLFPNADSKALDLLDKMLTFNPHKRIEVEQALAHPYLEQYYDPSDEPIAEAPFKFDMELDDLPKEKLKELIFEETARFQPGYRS

SMILES | IC50 [nM]
COC(=O)C1CC1c1n[nH]c2cc(NC(=O)N[C@H](C)c3ccccc3)ncc12 (some centres unmarked) [Example 641] | 1100
CC(F)(F)c1n[nH]c2cc(NC(=O)NCc3ccc(F)cc3)ncc12 [Example 668] | 647
Cc1cc(-c2n[nH]c3cc(NC(=O)N[C@@H]4CN(C)C[C@H]4c4cccc(Cl)c4)ncc23)ccn1 [Example 581] | 0.233
C[C@@H](NC(=O)Nc1cc2[nH]nc(-c3cnn(C)c3)c2cn1)c1ccc(F)cc1 [Example 259] | 0.469
CO[C@@H](C)CNC(=O)Nc1cc2[nH]nc(-c3ccnc(C)c3)c2cn1 [Example 597] | 0.945
COC(=O)C(NC(=O)Nc1cc2[nH]nc(-c3ccnc(C)c3)c2cn1)C(F)(F)F (centres unmarked) [Example 457] | 31.1
C[C@@H](NC(=O)Nc1cc2[nH]nc(C(F)F)c2cn1)c1ccccc1 [Example 670] | 13.6
COc1cc(-c2n[nH]c3cc(NC(=O)N[C@H](C)c4ccc(F)cc4)ncc23)ccn1 [Example 310] | 6.52
CCOCCNC(=O)Nc1cc2[nH]nc(-c3ccc(F)cc3)c2cn1 [Example 616] | 0.61
Cc1cc(-c2n[nH]c3cc(NC(=O)N[C@@H]4CN(C)C[C@H]4C)ncc23)ccn1 [Example 206] | 3.59
Cc1cc(-c2n[nH]c3cc(NC(=O)N[C@@H](C)c4ccc(C#N)cc4)ncc23)ccn1 [Example 233] | 42.5
C[C@@H](NC(=O)Nc1cc2[nH]nc(-c3ccc(-n4nccn4)cc3)c2cn1)c1ccc(F)cc1 [Example 247] | 45
CO[C@H]1CN(C(=O)c2n[nH]c3cc(NC(=O)N[C@H](C)c4ccccc4)ncc23)C[C@@H]1O [Example 130] | 1970
Cn1cc(-c2n[nH]c3cc(NC(=O)NCC4CCC4)ncc23)cn1 [Example 590] | 2.06
C[C@@H](NC(=O)Nc1cc2[nH]nc(-c3ccc4nn(C)cc4c3)c2cn1)c1ccccc1 [Example 651] | 0.223
CCNC(=O)Nc1cc2[nH]nc(-c3ccc(F)cc3)c2cn1 [Example 608] | 3.81
CCN(CC)CCC(NC(=O)Nc1cc2[nH]nc(-c3ccnc(C)c3)c2cn1)c1ccccc1 (centres unmarked) [Example 406] | 1.06
COCCNC(=O)Nc1cc2[nH]nc(-c3ccc(OC(C)C)nc3)c2cn1 [Example 630] | 2.12

SMILES | IC50 [nM]
C[C@@H](NC(=O)Nc1cc2[nH]nc(-c3cc[n+]([O-])cc3)c2cn1)c1ccccc1 [Example 93, 1-[3-(1-oxidopyridin-4-yl)-1H-pyrazolo[4,3-c]pyridin-6-yl]-3-[(1R)-1-phenylethyl]urea] | 0.383
O=C(NCC1CCOC1)Nc1cc2[nH]nc(-c3ccc(F)cc3)c2cn1 (centres unmarked) [Example 220] | 2.46
Cc1cc(-c2n[nH]c3cc(NC(=O)N[C@H]4CN(C)C[C@@H]4c4ccccc4F)ncc23)ccn1 [Example 185] | 37.3
COCCOC[C@@H](NC(=O)Nc1cc2[nH]nc(C(F)F)c2cn1)c1ccccc1 [Example 694] | 6.03
Cc1cc(-c2n[nH]c3cc(NC(=O)N[C@@H](c4ccccc4)[C@@H]4CCCO4)ncc23)ccn1 [Example 554] | 0.262
COC[C@@H](NC(=O)Nc1cc2[nH]nc(C3CC3)c2cn1)c1ccccc1 [Example 160] | 1.38
C[C@@H](NC(=O)Nc1cc2[nH]nc(-c3ccc4c(c3)OCCO4)c2cn1)c1ccccc1 [Example 88, 1-[3-(2,3-dihydro-1,4-benzodioxin-6-yl)-1H-pyrazolo[4,3-c]pyridin-6-yl]-3-[(1R)-1-phenylethyl]urea] | 1.16
O=C(Nc1cc2[nH]nc(-c3ccc(F)cc3)c2cn1)NC1CCOC1 (centres unmarked) [Example 609] | 5.83
CO[C@H](C)CNC(=O)Nc1cc2[nH]nc(-c3ccnc(C)c3)c2cn1 [Example 598] | 1.55
C[C@@H](NC(=O)Nc1cc2[nH]nc(-c3cncc(F)c3)c2cn1)c1ccc(F)cc1 [Example 664] | 2.49
C[C@@H](NC(=O)Nc1cc2[nH]nc(C(=O)NCC(F)(F)CN3CCCC3)c2cn1)c1ccccc1 [Example 128] | 19
Cc1cc(-c2n[nH]c3cc(NC(=O)N[C@H]4CN(C)C[C@@H]4c4ccc(F)cc4)ncc23)ccn1 [Example 211] | 0.731
CCOC(=O)CCc1n[nH]c2cc(NC(=O)NCc3ccccc3)ncc12 [Example 173, Ethyl 3-(6-(3-benzylureido)-1H-pyrazolo[4,3-c]pyridin-3-yl)propanoate] | 39.8
C[C@@H](NC(=O)Nc1cc2[nH]nc(CS(C)(=O)=O)c2cn1)c1ccccc1 [Example 560] | 81.7
C[C@@H](NC(=O)Nc1cc2[nH]nc(-c3cnoc3)c2cn1)c1ccccc1 [Example 640] | 3.6
O=C(Nc1cc2[nH]nc(C3CC3)c2cn1)N[C@@H]1CCCOc2ccccc21 [Example 295] | 2.67
C[C@@H](NC(=O)Nc1cc2[nH]nc(-c3ccnc(N4CCOCC4)c3)c2cn1)c1ccc(F)cc1 [Example 281] | 1.91

Next, values leading:

IC50 [nM] | SMILES
5.72 | Cc1cc(-c2n[nH]c3cc(NC(=O)NC4CC(=O)Nc5ccccc54)ncc23)ccn1 (centres unmarked) [Example 407]
0.478 | Cc1cc(-c2n[nH]c3cc(NC(=O)NCCc4nc5ccccc5[nH]4)ncc23)ccn1 [Example 377]
1.29 | Cc1cc(-c2n[nH]c3cc(NC(=O)NC[C@H](C)c4ccccc4)ncc23)ccn1 [Example 621]
2.14 | Cc1cc(-c2n[nH]c3cc(NC(=O)NCCOC(C)C)ncc23)ccn1 [Example 451]
1.66 | Cc1cc(-c2n[nH]c3cc(NC(=O)NC(C)c4ccc(F)cn4)ncc23)ccn1 (centres unmarked) [Example 364]
1.41 | Cc1cc(-c2n[nH]c3cc(NC(=O)NCc4cnccc4C)ncc23)ccn1 [Example 491]
3.73 | Cc1cc(-c2n[nH]c3cc(NC(=O)NCc4ccc(C#N)cc4)ncc23)ccn1 [Example 445]
0.755 | CC[C@@H](NC(=O)Nc1cc2[nH]nc(-c3ccnc(C)c3)c2cn1)c1ccc(Cl)cc1 [Example 414]
0.85 | Cc1cc(-c2n[nH]c3cc(NC(=O)NCCc4cn[nH]c4)ncc23)ccn1 [Example 394]
5.39 | Cc1cc(-c2n[nH]c3cc(NC(=O)NC4CCc5ccccc54)ncc23)ccn1 (centres unmarked) [Example 78, 1-(2,3-dihydro-1H-inden-1-yl)-3-[3-(2-methylpyridin-4-yl)-1H-pyrazolo[4,3-c]pyridin-6-yl]urea]
1.91 | Cc1cc(-c2n[nH]c3cc(NC(=O)NCc4ncc(F)cc4F)ncc23)ccn1 [Example 450]
11.9 | Cc1cc(-c2n[nH]c3cc(NC(=S)NCc4ccccc4)ncc23)ccn1 [Example 94, 6-[(benzylcarbamothioyl)amino]-3-(2-methylpyridin-4-yl)-1H-pyrazolo[4,3-c]pyridin-5-ium trifluoroacetate]
53.5 | Cc1cc(-c2n[nH]c3cc(NC(=O)NC4c5ccccc5OC(C)(C)C4O)ncc23)ccn1 (centres unmarked) [Example 530]
0.945 | Cc1cc(-c2n[nH]c3cc(NC(=O)NCc4ccc(F)cc4)ncc23)ccn1 [Example 273]
2.75 | Cc1cc(-c2n[nH]c3cc(NC(=O)NCc4scnc4C)ncc23)ccn1 [Example 418]
7.22 | Cc1cc(-c2n[nH]c3cc(NC(=O)NCCO)ncc23)ccn1 [Example 573]

Same assay, conditions: read-out: AERK2 IC50 (Active human ERK2 Activity Assay)

IC50 [nM] | SMILES
0.2 to 1.7 | C[C@@H](NC(=O)Nc1cc2[nH]nc(-c3cc[n+]([O-])cc3)c2cn1)c1ccccc1 [Example 93, 1-[3-(1-oxidopyridin-4-yl)-1H-pyrazolo[4,3-c]pyridin-6-yl]-3-[(1R)-1-phenylethyl]urea]
0.2 to 1.7 | C[C@@H](NC(=O)Nc1cc2[nH]nc(-c3ccc4c(c3)OCCO4)c2cn1)c1ccccc1 [Example 88, 1-[3-(2,3-dihydro-1,4-benzodioxin-6-yl)-1H-pyrazolo[4,3-c]pyridin-6-yl]-3-[(1R)-1-phenylethyl]urea]
